Values quoted from earlier work as cited in patent publication US20130129859A1, “DOSING PROTOCOLS FOR INCREASING PROTEIN SYNTHESIS IN AN ACTIVE INDIVIDUAL” (priority 2009, published 2013).

In the case of casein, the Whole-body protein synthesis (previously discussed study) is listed as “best with casein” and the “Leucine balance, slow versus fast protein meal matched for leucine content” value (young, healthy subjects) is listed as “higher leucine balance”.
